Source: patent US20190328833A1, “POLYMYXIN-ALGINATE OLIGOMER CONJUGATES” (AlgiPharma AS, priority 2016, published 2019)

Tests used:
[1] = tested on: human kidney (HK-2) cell line; test: In vitro cytotoxicity: MTT assay; format: cell-based; conditions: HK-2, 72 h, concentration of the antibiotic or the antibiotic within the conjugate, mean (n=18)
Protocol: An MTT assay was used to assess cell viability in a human kidney (HK-2) cell line (72 h incubation). HK-2 cells were seeded into sterile 96-well microtitre plates (1×10^5 cells/mL) in 0.1 mL/well of media (K-SFM) containing L-glutamine, EGF and BPE. They were allowed to adhere for 24 h. The medium was then removed and a range of concentrations of test compounds (0.2 μm filter-sterilized) dissolved in fresh culture media were added to the cells. After a further 67 h incubation, MTT, 3-(4,5-dimethylthiazol-2-yl)-2,5-diphenyltetrazolium bromide, (20 μL of a 5 mg/mL solution in PBS) was added to each well and the cells were incubated for a further 5 h. The medium was then removed and the precipitated formazan crystals solubilized by addition of optical grade DMSO (100 μL) over 30 min. Absorbance was measured at 540 nm using a microtitre plate reader. Cell viability was expressed as a percentage of the viability of untreated control cells. The IC50 values were expressed as mean (n=18).
The IC50 values summarised below represent the concentration of the antibiotic (polymyxin B, colistin sulphate or colistin methanesulphonate (CMS)) or the antibiotic within the conjugate required to inhibit HK2 cells growth by half. OligoG is included as a control.

[2] = tested on: V4 Acinetobacter baumanii MDR ACB; test: MIC, broth microdilution, V4; format: cell-based; conditions: n=3, median
Protocol: (§1) The strains used for susceptibility testing include both culture collection strains and clinical isolates (Table 1). To the extent indicated below, their known relevant genotypes and origin have been described by Khan et al. supra.
(§2) The MICs were determined using the broth microdilution method in accordance with standard guidelines (CLSI 2012). Test organisms were suspended in Mueller Hinton cation adjusted (MH) broth (100 μL, 1-5×10^4 CFU/mL) and incubated in 96-well microtitre plates in serial two-fold dilutions of the test compounds. The MIC was defined as the lowest concentration of test compound that produced no visible growth after 16-20 hours.

[3] = tested on: TNFα release from HK2 cells; test: TNFα release from HK2 cells (ELISA); format: cell-based, human; conditions: 72 h incubation, FIG. 8
Protocol: As a model inflammatory cytokine involved in polymyxin cyto toxicity, TNFα release from HK2 cells in response to polymyxins and OligoG-polymyxin conjugates was measured by ELISA. HK-2 cells were seeded into sterile 96-well microtitre plates (1×10^5 cells/mL) in 0.1 mL/well of media (K-SFM) containing L-glutamine, EGF and BPE. They were allowed to adhere for 24 h. The medium was then removed and a range of concentrations of test compounds (0.2 μm filter-sterilized) dissolved in fresh culture media were added to the cells. After 72 h incubation, microtiter plates were centrifuged (1500 rpm, 3 min) and the supernatant was transferred into a new 96-well microtitre plate.
TNFα ELISA Assay was carried out according the manufacturer's instructions (Thermo Scientific, ESS0001). Briefly, 100 μL of coating antibody (1:100 dilution in PBS) was added to each well of 96-well microtitre plate. […] Absorbance was measured at 450 nm minus 550 nm.
Standard curves were generated by plotting the average absorbance obtained for each standard concentration on the vertical (Y) axis versus the corresponding human TNFα concentration (pg/mL) on the horizontal (X) axis. Human TNFα amount in each sample was determined by interpolating from the absorbance value (Y-axis) to human TNFα concentration (X-axis) using the standard curve. […]

[4] = tested on: V6 Klebsiella pneumoniae IR25; test: MIC, broth microdilution, V6; format: cell-based; conditions: n=3, median
Protocol: as §1, §2

[5] = tested on: V2 Pseudomonas aeruginosa (301); test: MIC, broth microdilution, V2; format: cell-based; conditions: for MIC V2: n=3, median
Protocol: as §1, §2

[6] = tested on: V2 Pseudomonas aeruginosa, V3 Klebsiella pneumoniae, V19 Acinetobacter baumannii, V7 Escherichia coli; test: Bacterial growth curves (absorbance at 600 nm, 48 h); format: cell-based
Protocol: Finally, bacterial growth curves, using the mean of the previously determined MIC values for OligoG-colistin conjugates (amide and ester linked) and colistin sulfate, were used to compare their pharmacokinetic profiles in vitro. For comparison, bacterial growth in the presence of i) OligoG, ii) PRONOVA (high molecular weight alginate) and iii) OligoG plus colistin, both at concentrations corresponding to the amounts present in the corresponding conjugates, was measured. Sterile 96-well microtitre plates were set up for MIC assay as previously described (range: MIC×16 to MIC/16, 0). Plates were then wrapped in parafilm and placed in a microtitre plate reader at 37° C., 5% CO2 and absorbance at 600 nm was measured hourly for 48 h. Experiments were conducted in triplicate and results were presented as mean values (n=3).

V11 Escherichia coli = test: MIC, broth microdilution, V11; format: cell-based; conditions: Batch 6; n=3, median
Protocol: as §1, §2

V5 Escherichia coli = test: MIC, broth microdilution, V5; format: cell-based; conditions: n=3, median
Protocol: as §1, §2

Pseudomonas aeruginosa = test: MIC quoted for the biofilm study; format: cell-based; conditions: FIG. 9 legend and Example 7; strain not stated
Protocol: as §2
These experiments investigated whether OligoG-colistin conjugates could inhibit biofilm development more effectively than unconjugated forms of colistin. First, stock solutions of the test compounds were prepared at 1 mg/mL in MH broth and used to prepare a range of antibiotic concentrations (2×MIC-MIC/8) using double dilutions in MH broth across wells of a Greiner glass-bottomed optical 96-well plate (90 μL per well). Sterility (100 μL of MH broth) and growth (90 μL of MH broth plus 10 μL of tested bacterial pathogen) controls were also prepared. Overnight bacterial cultures were grown in TS broth (TSB) and diluted in MH broth to achieve an OD625 of 0.5, then 10 μL was added to the wells. Plates were wrapped in parafilm and incubated for 24 h on a rocker (20 rpm) at 37° C. […] The plate was wrapped in parafilm and kept in the dark until it was analysed by confocal laser scanning microscopy (CLSM), n=2.

[7] = tested on: NH57388A Pseudomonas aeruginosa; test: MIC, broth microdilution, NH57388A; format: cell-based; conditions: Batch 6; n=3, median
Protocol: as §1, §2

V7 Escherichia coli = test: MIC, broth microdilution, V7; format: cell-based; conditions: for MIC V7: n=3, median
Protocol: as §1, §2

[8] = tested on: Pseudomonas aeruginosa biofilms; test: Disruption of biofilm development (CLSM, live/dead stain); format: cell-based; conditions: 2×MIC-MIC/8; 24 h
Protocol: These experiments investigated whether OligoG-colistin conjugates could inhibit biofilm development more effectively than unconjugated forms of colistin. First, stock solutions of the test compounds were prepared at 1 mg/mL in MH broth and used to prepare a range of antibiotic concentrations (2×MIC-MIC/8) using double dilutions in MH broth across wells of a Greiner glass-bottomed optical 96-well plate (90 μL per well). Sterility (100 μL of MH broth) and growth (90 μL of MH broth plus 10 μL of tested bacterial pathogen) controls were also prepared. Overnight bacterial cultures were grown in TS broth (TSB) and diluted in MH broth to achieve an OD625 of 0.5, then 10 μL was added to the wells. Plates were wrapped in parafilm and incubated for 24 h on a rocker (20 rpm) at 37° C. After a 24 h incubation, the supernatant was carefully removed from all wells and 3 μL of live/dead stain (Live/dead Baclight Bacterial Viability kit; prepared by mixing 1 μL of component A and B in 1 mL of PBS) was added. The plate was wrapped in foil and kept in the dark for 15 min. Lastly, 47 μL of PBS was added to all tested wells. The plate was wrapped in parafilm and kept in the dark until it was analysed by confocal laser scanning microscopy (CLSM), n=2.

V3 Klebsiella pneumoniae = test: MIC, broth microdilution, V3; format: cell-based; conditions: for MIC V3: n=3, median
Protocol: as §1, §2

[9] = tested on: Acinetobacter baumanii (V19); test: Two-compartment static dialysis bag PK/PD model, colony counts; format: cell-based; conditions: at MIC (0.25 μg/ml); after 4 h; Batch 6
Text: Studies were undertaken to investigate the PK/PD profiles of the OligoG-colistin conjugates (Batch 6) as compared to non-conjugated colistin in vitro. This is particularly important in nanoscale drug delivery systems where the incorporation of conventional small molecule drugs into nano-sized structures is associated with PK/PD properties that are substantially altered from the original drug. The model system previously described in Azzopardi (supra) was employed.
The unmasking of OligoG-colistin conjugates was simulated using the Azzopardi two-compartment static dialysis bag model under infinite sink conditions (total volume, 20 ml; inner-compartment volume, 5 ml). Dialysis membrane (10,000 g/mol molecular weight cutoff [MWCO]) was pre-soaked for 15 to 30 min in distilled water (dH2O), secured with dialysis clips, and suspended from an injection port to separate the inner compartment (IC) from the outer compartment (OC) in a sterilized 25-ml beaker sealed with a sterile medical-grade polyurethane membrane (Tegaderm).
The model system was prepared under aseptic conditions in a class 2 laminar airflow cabinet and transferred to a shaking incubator set at 37° C. in ambient air and constant orbital agitation at 70 rpm for 48 h. […] Samples were collected from the OC at various time points and characterised by bacterial colony counts (CFU/ml) using Miles and Misra Method.

[10] = tested on: V19 Acinetobacter baumannii; test: MIC, broth microdilution, V19; format: cell-based; conditions: for MIC V19: n=3, median
Protocol: as §1, §2

[11] = tested on: V1 Pseudomonas aeruginosa R22; test: MIC, broth microdilution, V1; format: cell-based; conditions: n=3, median
Protocol: as §1, §2

Substance	IC50 ([1]; Batch 5) [ng/mL]	MIC V4 ([2]; Batch 4) [ng/mL]	MIC V4 ([2]; Batch 6) [ng/mL]	TNFα release, adjusted for cell viability [3]	MIC V6 ([4]; Batch 4) [ng/mL]	MIC V6 ([4]; Batch 6) [ng/mL]	MIC V2 ([5]; Batch 2) [ng/mL]	MIC V2 ([5]; Batch 4) [ng/mL]	MIC V2 ([5]; Batch 6) [ng/mL]	MIC V11 (V11 Escherichia coli) [ng/mL]	MIC V5 (V5 Escherichia coli; Batch 2) [ng/mL]	MIC V5 (V5 Escherichia coli; Batch 4) [ng/mL]	MIC V5 (V5 Escherichia coli; Batch 6) [ng/mL]	MIC NH57-388A [7] [ng/mL]	MIC V7 (V7 Escherichia coli; Batch 4) [ng/mL]	MIC V7 (V7 Escherichia coli; Batch 6) [ng/mL]	MIC V3 (V3 Klebsiella pneumoniae; Batch 2) [ng/mL]	MIC V3 (V3 Klebsiella pneumoniae; Batch 4) [ng/mL]	MIC V3 (V3 Klebsiella pneumoniae; Batch 6) [ng/mL]	IC50 ([1]; Batch 4) [ng/mL]	also measured
colistin methanesulphonate [CMS]	13970	–	–	–	–	–	–	–	–	–	–	–	–	–	–	–	–	–	–	–	–
colistin sulfate	10980	500	500	greater TNFα release	62.5	63	250	250	500	31	0.02	<16	<8	250	125	250	<125	<63	125	25000	median MIC ([5]; FIG. 1 legend, V2, MIC used for growth curves): 63 ng/mL; bacterial growth / regrowth in growth curves ([6]; FIGS. 1-5, 48 h): more rapid bacterial regrowth; inhibition of bacterial re-growth ([6]; at the median of previously determined MIC values across all batches): shortest inhibition of bacterial re-growth; concentration inhibiting bacterial re-growth for up to 48 h ([6]; up to 48 h): > 8 ×MIC; median MIC (Pseudomonas aeruginosa): 63 ng/mL; median MIC (V7 Escherichia coli; FIG. 4 legend, V7, MIC used for growth curves): 63 ng/mL; effect on biofilms [8]: only a small effect on P. aeruginosa biofilms; median MIC (V3 Klebsiella pneumoniae; FIG. 2 legend, V3, MIC used for growth curves): 8 ng/mL; reduction of viable bacterial counts [9]: ~2 fold; MIC V19 ([10]; Batch 2): <62.5 ng/mL; MIC V19 ([10]; Batch 4): <16 ng/mL; MIC V19 ([10]; Batch 6): 250 ng/mL; median MIC ([10]; FIG. 3 legend, V19, MIC used for growth curves): 2 ng/mL; MIC V1 ([11]; Batch 4): 250 ng/mL; MIC V1 ([11]; Batch 6): 500 ng/mL
polymyxin B	12630	125	125	greater TNFα release	125	125	250	500	500	63	<0.008	<16	<4	250	63	500	<125	125	125	12000	MIC V19 ([10]; Batch 2): <62.5 ng/mL; MIC V19 ([10]; Batch 4): 31 ng/mL; MIC V19 ([10]; Batch 6): 125 ng/mL; MIC V1 ([11]; Batch 4): 250 ng/mL; MIC V1 ([11]; Batch 6): 250 ng/mL
